“And” between values parts separate entries of the source, which are not always exact repeats. Equal values may be shown once.
Assay: Single dose, randomized, open-label, 4-period crossover pharmacokinetic study; plasma tramadol and O-desmethyltramadol (M1) by HPLC-MS/MS; AQ=Cmax/Tmax
Conditions: healthy subjects; for AQ for tramadol, comparison between treatments (statistical significance): 4-way cross-over study; for O-desmethyltramadol AQ / O-desmethyltramadol Cmax / O-desmethyltramadol Tmax / Tramadol AQ / Tramadol Cmax: 2 × 100 mg co-crystal E-58425 tablets (Treatment 1), oral
Method: The study was a single center, randomized, single dose, open-label, 4-period, 4-sequence, crossover design in healthy male and female subjects.
The products were administered to 36 subjects. The wash-out between the periods for each subject was of 7 calendar days.
Separate blood samples were obtained for analysis of tramadol/M1 metabolite and for analysis of celecoxib (data not shown).
As soon as possible following blood collection, samples were centrifuged at a temperature of 4° C. nominal and at approximately 1500 g for 10 minutes. The plasma obtained was separated into duplicate polypropylene culture tubes. […] The samples were frozen in an upright position and retained in the clinic's freezers at a temperature of −20° C. nominal until sent on dry ice to the bioanalytical facility for assay.
The experimental human plasma samples were assayed for tramadol and M1 metabolite (O-desmethyltramadol) and also for celecoxib (data not shown) using two different validated bioanalytical methods by HPLC with MS/MS detection.
Sample pre-treatment involved the liquid-liquid extraction of tramadol and O-desmethyltramadol from 0.100 mL of human plasma; tramadol-D6 and O-desmethyltramadol-D6 were used as the internal standards (IS1 and IS2 respectively). The compounds were identified and quantified using Hilic HPLC with MS/MS detection over a theoretical concentration range of 2.00 ng/mL to 800.00 ng/mL for tramadol and 0.500 ng/mL to 200.00 ng/mL for O-desmethyltramadol. The concentrations were calculated using peak area ratios and the linearity of the calibration curve was determined using a weighted (1/x^2) linear (y=mx+b) least squares regression analysis for tramadol and for O-desmethyltramadol.
Pharmacokinetic parameters were estimated from the individual plasma concentration—time profile for each subject. The main absorption and disposition parameters were obtained using a non-compartmental approach with a log-linear terminal phase assumption. Maximum observed plasma concentration (Cmax) and the time of maximum observed plasma concentration (Tmax) were obtained directly from the experimental data. The trapezoidal rule was used to estimate the area under the curve (AUC; data not shown) and the terminal phase was estimated by maximizing the coefficient of determination estimated from the log-linear regression model (T1/2; data not shown). The abuse quotient was obtained using the following expression AQ=Cmax/Tmax.

[1] = Table 3 summary, oral co-crystal E-58425 tablets

SMILES: COc1cccc([C@]2(O)CCCC[C@@H]2CN(C)C)c1.Cc1ccc(-c2cc(C(F)(F)F)nn2-c2ccc(S(N)(=O)=O)cc2)cc1.Cl (racemic) [co-crystal E-58425, co-crystal of (rac)-tramadol.HCl and celecoxib]
- AQ for tramadol, comparison between treatments (statistical significance): better (lower) AQ ratio
- AQ for tramadol, comparison between treatments (statistical significance) (listed as Co-crystal E-58425): lower than those obtained for Ultram® and for Ultram® and Celebrex® taken concomitantly
- O-desmethyltramadol AQ (Mean, n=33): 13.5 ng/(mL · h)
- O-desmethyltramadol Cmax (Mean, n=33): 0.0545 µg/mL
- O-desmethyltramadol Tmax (Mean, n=33): 4.4 h
- Tramadol AQ (Mean, n=33): 70.5 ng/(mL · h)
- Tramadol Cmax (Mean, n=33): 0.2143 µg/mL
- O-desmethyltramadol AQ (Median, n=33): 13.3 ng/(mL · h)
- O-desmethyltramadol Cmax (Median, n=33): 0.0554 µg/mL
- Tramadol AQ (Median, n=33): 70.7 ng/(mL · h)
- Tramadol Cmax (Median, n=33): 0.2075 µg/mL
- AQ M1 Mean [1]: 13.5
- AQ Tramadol Mean [1]: 70.5
- O-desmethyltramadol Tmax (individual subject values, fasting, plasma): 3.00 h and 4.00 h

Source: patent US20200360306A1, “USE OF CO-CRYSTALS OF TRAMADOL AND CELECOXIB FOR TREATING PAIN WHILE REDUCING THE ABUSE LIABILITY OF TRAMADOL” (ESTEVE PHARMACEUTICALS, S.A., priority 2019, published 2020)
